# Data: US12390467B2, “Necroptosis inducers or autophagy inhibitors or a combination thereof” (The University of Toledo, priority 2018, dated 2025)
# Experiments:
# Format in all cases: cell-based
# [1] = system: MDA-MB468 (TNBC cell line); assay: MTT cell viability assay, MDA-MB468; details: Homo sapiens, MDA-MB-468, 72 h, read-out: IC50 ± SD, MDA-MB468
# Protocol: (§1) The following cancer and non-cancer cell lines were used in the initial cytotoxicity screening of the TPH104 compounds: triple negative breast cancer (TNBC): MDA-MB468, MDA-MB 231, and BT-20; non-TNBC: MCF-7 and ZR-75-1; ovarian: Ov2008; prostate: DU145; colon: HCT-116, S1, and LOVO; lung: H460; normal kidney: HEK-293; normal breast: HMEC; and normal colon: CRL-1459. All cells were cultured in Dulbecco's modified Eagle medium (DMEM), supplemented with 10% fetal bovine serum (FBS), and 1% penicillin/streptomycin (P/S). Cells were allowed to grow as adherent monolayers in T25 flasks in a humidified incubator with 5% CO2 at 37° C. for a period of 24 h, unless otherwise specified for certain experiments.
# (§2) The MTT assay was used to determine the cytotoxicity of all of the compounds. Briefly, in a 96-well flat-bottom cell culture plate, the cells were seeded at a density between 3-5×10^3 cells/well (180 μl in each well) and incubated for 24 h (a hemocytometer was used for cell counting). The next day, the cells were incubated with different concentrations of the nine compounds (0, 0.1, 0.3, 1, 3, 10, 30, and 100 μM) for 72 h. After 72 h, 20 μl of 5 mg/ml of 3-(4,5-dimethylthiazol-2-yl)-2,5-diphenyltetrazolium bromide (MTT) was added to the plate and incubated with the cells for 3 h at 37° C. In this experiment, the living cells will reduce the soluble MTT dye to non-soluble purple formazan crystals. Following incubation, the media containing MTT removed via suction and 100 μL of 100% dimethyl sulfoxide (DMSO) was added to dissolve the formazan crystals. Subsequently, the plate was shaken for 2 minutes and the absorbance was measured at a wavelength of 570 nm using a SpectraMax iD3 Multi-Mode Microplate Reader (Molecular Devices, Sunnyvale, CA). The IC50 values of each compound were calculated and used to determine the selectivity ratio (IC50 in normal cells/IC50 in cancer cells) of each compound as previously described. Based on the results obtained from these experiments, the compound TPH104, which had the lowest IC50 value, was selected for further experiments.
# BT-20 (TNBC cell line) = assay: MTT cell viability assay, BT-20
# Protocol: as §1, §2
# [2] = system: other normal cell lines (colon and kidney); assay: MTT cytotoxicity, other normal cell lines
# Protocol: as §1
# The MTT assay was used to determine the cytotoxicity of all of the compounds. Briefly, in a 96-well flat-bottom cell culture plate, the cells were seeded at a density between 3-5×10^3 cells/well (180 μl in each well) and incubated for 24 h (a hemocytometer was used for cell counting). […] Subsequently, the plate was shaken for 2 minutes and the absorbance was measured at a wavelength of 570 nm using a SpectraMax iD3 Multi-Mode Microplate Reader (Molecular Devices, Sunnyvale, CA). The IC50 values of each compound were calculated and used to determine the selectivity ratio (IC50 in normal cells/IC50 in cancer cells) of each compound as previously described. […]
# [3] = system: MDA-MB468, BT-20, and MDA-MB231; assay: Trans-well migration assay; details: 1 μM or 10 μM, 24 h
# Protocol: This assay was used to assess the migration and invasiveness of TNBC cells. In this assay, 24 well-plates with 24 well inserts of 8 μm pore size, (Corning, Cambridge, MA, USA), were used. The inserts were pre-coated with growth-factor reduced matrigel (1:40) and added to each well, forming two chambers (upper and lower). Briefly, cells were seeded at a density of 10,000 cells/well in the upper chamber of the inserts. The lower chamber was filled with cell-free DMEM medium supplemented with 10% FBS and 1% P/S. The next day, cells were incubated with 0.1, 1, or 10 μM of TPH104 or vehicle for 24 h to allow the cells to migrate through the porous membrane into the lower chamber. Following incubation, cotton swabs were used to wipe away the non-migrated, stationary cells in the upper chamber. The migrated cells were fixed with 100% methanol and stained with 0.1% crystal violet dye. The migrated cells were then viewed, pictured and counted using an EVOS-FLC microscope as previously reported.
# [4] = target: T1, BCRP (ABCG2), MCF-7 M100 breast cancer cells (Homo sapiens, UniProt Q9UNQ0); assay: Hoechst 33342 assay for BCRP modulation; details: concentration dependent
# T1 construct: endogenous in cells; host or cells: MCF-7 M100 breast cancer cells
# Protocol: Ability of BCRP to efflux nuclear stain Hoechst 33342 was used to identify the molecules which interfere with BCRP transporter activity. About 14000 cells of MCF-7 M100 breast cancer cells were seeded in each well in 96 well plates and allowed to grow until confluency for 4-5 days. Then media was replaced with phenol red free RPMI media and cells were treated with indicated concentrations of TPH104s and 5 μg/mL of Hoechst 33342. Fluorescence measured after 60 minutes with excitation at 361/20 nm and at emission 497/20 nm using the BioTek Cytation 5 imaging multi-mode reader (Bio-Tek, Winooski, VT). DMSO (0.5% v/v) was used as the vehicle, and 0.5 μM of BCRP inhibitor, Ko143 was used as a positive control and 15 μM of P-gp modulator, verapamil was used as negative control.
# T1 sequence (Q9UNQ0 whole entry): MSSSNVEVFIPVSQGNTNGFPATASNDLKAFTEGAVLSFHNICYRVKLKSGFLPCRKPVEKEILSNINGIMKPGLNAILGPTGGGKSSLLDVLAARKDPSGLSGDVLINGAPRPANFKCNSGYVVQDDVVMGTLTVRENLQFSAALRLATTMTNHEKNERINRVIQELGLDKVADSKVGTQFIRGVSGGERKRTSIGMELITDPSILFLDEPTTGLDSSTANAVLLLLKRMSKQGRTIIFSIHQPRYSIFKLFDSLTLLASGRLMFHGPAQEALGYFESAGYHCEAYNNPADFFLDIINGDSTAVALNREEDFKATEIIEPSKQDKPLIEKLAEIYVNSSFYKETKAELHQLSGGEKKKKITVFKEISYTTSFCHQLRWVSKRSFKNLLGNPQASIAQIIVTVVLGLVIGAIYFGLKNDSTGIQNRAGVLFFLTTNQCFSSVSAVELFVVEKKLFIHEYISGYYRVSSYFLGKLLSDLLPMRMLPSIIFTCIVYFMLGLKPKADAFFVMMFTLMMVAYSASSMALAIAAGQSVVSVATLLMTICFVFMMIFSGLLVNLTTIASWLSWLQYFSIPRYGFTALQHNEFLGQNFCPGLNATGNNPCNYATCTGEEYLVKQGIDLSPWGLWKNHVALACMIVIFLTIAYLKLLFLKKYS
compound,measurement,setting,value
COc1ccc(O)c(/C=N/Nc2ncnc3scc(-c4ccc(C)cc4)c23)c1 [TPH104],IC50,[1],250 nM
same,"percent cell survival, TPH104 + rapamycin vs TPH104 only",BT-20 (TNBC cell line); + 100 nM rapamycin,significant increase
same,"percent BT-20 survival, TPH104 + 3-methyladenine",BT-20 (TNBC cell line); + 0.5 mM,no significant change
same,IC50,"BT-20 (TNBC cell line); Homo sapiens, BT-20, MTT, 72 h, TNBC",290 nM
same,selectivity fold in comparison to other normal cell lines (colon and kidney),[2],up to 30 fold
same,migration of TNBC cells,[3],significantly decreased
same,efflux function of ABCG2,[4],blocking the efflux function
